pIC50: −log10 of the molar value. Like-named read-outs stand apart in the source and are kept apart here. Where only a bound is given, the exact number is not on record here.

Test [1] relates to KB. The following applies: most active derivatives published earlier; read-out: Cell Line, IC50 [ μM] KB; cited from earlier work.
Test [2] relates to HeLa. The following applies: most active derivatives published earlier; read-out: Cell Line, IC50 [ μM] HeLa; cited from earlier work.
Test [3] relates to MCF-7. Particulars: most active derivatives published earlier; read-out: Cell Line, IC50 [ μM] MCF-7; cited from earlier work.
The subject of test [4] is HDF (normal fibroblast cell line). Put plainly: MTT assay, HDF. Type of test: cell-based, human. Particulars: Homo sapiens, Fibroblast, MTT assay; HDF normal fibroblast cell line; (±s) standard deviation. On the technique in general: Tetrazolium assays rely on reduction of a dye to a coloured formazan, in cell work by metabolically active cells.
For test [5], the system named is KB. Briefly: MTT assay, KB. The following applies: for IC50: Homo sapiens, MTT assay, KB nasopharynx carcinoma, (±s) standard deviation; for Selectivity Index KB: IC50 for normal cell line (HDF)/IC50 for KB. Type of test: cell-based.
The subject of test [6] is A-549. Put plainly: MTT assay, A-549. Type of test: cell-based. Particulars: for IC50: Homo sapiens, A549, MTT assay, A-549 lung carcinoma, (±s) standard deviation; for Selectivity Index A-549: IC50 for normal cell line (HDF)/IC50 for A-549.
Test [7] relates to HeLa. Put plainly: MTT assay, HeLa. Type of test: cell-based. The following applies: for IC50: Homo sapiens, MTT assay, HeLa cervix carcinoma, (±s) standard deviation; for Selectivity Index HeLa: IC50 for normal cell line (HDF)/IC50 for HeLa.
The test system of test [8] is MCF-7. Put plainly: MTT assay, MCF-7. The following applies: for IC50: Homo sapiens, MCF7, MTT assay, MCF-7 breast carcinoma, (±s) standard deviation; for Selectivity Index MCF-7: IC50 for normal cell line (HDF)/IC50 for MCF-7. Type of test: cell-based.
The test system of test [9] is HeLa, KB, MCF-7, A-549 and HDF cell lines. Put plainly: MTT assay, statements over several tested cell lines. Type of test: cell-based. The following applies: for pIC50: read-out: IC50 values for the tested cell lines (range or summary).
The subject of test [10] is U-87MG, MCF-7, and HeLa cancer cell lines. Put plainly: Apoptosis assay, all cancer cell lines. Type of test: cell-based. From the text:
The necrosis process induced by all the tested compounds was very small.

Setting [11] is: summary over the tested cell lines.

As for `COC(=O)C12CCC(C)(C)CC1C1C(=NOC(=O)CCl)CC3C4(C)CCC(OC(C)=O)C(C)(C)C4CCC3(C)C1(C)CC2` (stereo not shown) [8b [22]], the IC50 (usually the concentration that gives 50% inhibition) was 9.42 µM in test [1], 9.19 µM in test [2] and 7.26 µM in [3].
On to `COC(=O)C12CCC(C)(C)CC1C1C(=NOC(=O)CBr)CC3C4(C)CCC(OC(C)=O)C(C)(C)C4CCC3(C)C1(C)CC2` (stereo not shown) [8c [22]], for which the IC50 in test [1] was 4.9 µM; in test [2] it was 4.41 µM; in [3] it was 3.76 µM.
For the compound `CCC(=O)ON=C1C[C@@H]2[C@@]3(C)CC[C@H](OC(C)=O)C(C)(C)[C@@H]3CC[C@@]2(C)[C@]2(C)CC[C@@]3(C(=O)OC)CCC(C)(C)C[C@H]3[C@@H]12` [8d [22]], the IC50 in [1] is 0.72 µM; in test [2], 1.87 µM; in [3] it was 2.13 µM.
With `COC(=O)C12CCC(C)(C)CC1C1C(=NOC(=O)c3ccccc3[N+](=O)[O-])CC3C4(C)CCC(OC(C)=O)C(C)(C)C4CCC3(C)C1(C)CC2` (stereo not shown) [8e [22]], the figures for the IC50 in test [1], in test [2] and in [3] were over 10 µM, 9.84 µM and 9.28 µM, respectively.
As for `COC(=O)C12CCC(C)(C)CC1C1=CC(=O)C3C4(C)CCC(=NO)C(C)(C)C4CCC3(C)C1(C)CC2` (stereo not shown) [Compound 3], the IC50 in [4] was 61 µM; in [1] it was 6.19 µM; in test [2], 5.03 µM; in [5], 60.3 µM; in test [3], over 10 µM; in [6], 63 µM. The IC50 in test [7] is 125 µM; in [8] it was 48.4 µM. Also, the “Selectivity Index KB” value in test [5] was determined as 1.01. Moreover, the “Selectivity Index A-549” value in [6] was 0.97. Further, in test [7], the “Selectivity Index HeLa” value was determined as 0.49. In addition, in [8], the “Selectivity Index MCF-7” value amounted to 1.26.
Turning to `CC1(C)CCC2(C(=O)N3CCOCC3)CCC3(C)C(=CCC4C5(C)CCC(=NO)C(C)(C)C5CCC43C)C2C1` (stereo not shown) [Compound 4], the IC50 in [4] is 13.9 µM; in test [1], 1.74 µM; in [2] it was 1.8 µM; in [5], 8.72 µM; in test [3], 1.6 µM; in test [6], 7.29 µM. For the same compound, the IC50 stood at 8.72 µM in test [7] and 7.42 µM in [8]. In [9] (setting [11]), the negative-log IC50 (pIC50) (as a rule, the negative decadic logarithm of the IC50, by convention in mol/L) was 5.10 to 5.15. Besides, the “Selectivity Index KB” value in test [5] was found to be 1.60. The “Selectivity Index A-549” value in [6] turned out to be 1.91. Besides, the “Selectivity Index HeLa” value in test [7] turned out to be 1.60. In test [8], the “Selectivity Index MCF-7” value amounted to 1.88.
For `COC(=O)[C@]12CCC(C)(C)CC1C1=CC(=O)C3[C@@]4(C)CC/C(=N\OC(=O)c5cc([N+](=O)[O-])cc([N+](=O)[O-])c5)C(C)(C)C4CC[C@@]3(C)[C@]1(C)CC2` (stereo partly shown) [Compound 6g, 3-(3′,5′-Dinitro)benzoxyimino-11-oxoolean-12-en-28-oic acid methyl ester], the IC50 was 7.27 µM in [4]; 8.98 µM in [5]; 5.39 µM in test [6]; 6.11 µM in test [7]; 6.62 µM in [8]. In addition, the negative-log IC50 (pIC50) in test [9] (setting [11]) is 5.05 to 5.27. In addition, the “Selectivity Index KB” value in [5] was found to be 0.81. Moreover, the “increase in induction of apoptosis” value is reported as 1.7 fold in [10] (0.1 µg/mL), 2.4 fold in test [10] (1.0 µg/mL) and 2.9 fold in [10] (10 µg/mL). Moreover, the “Selectivity Index A-549” value in [6] is 1.34. The “Selectivity Index HeLa” value in [7] worked out at 1.19. In [8], the “Selectivity Index MCF-7” value came out at 1.10.
In test [4], `CC(=O)O/N=C1\CC[C@@]2(C)C(CC[C@]3(C)C2CC=C2C4CC(C)(C)CC[C@]4(C(=O)N4CCOCC4)CC[C@]23C)C1(C)C` (stereo partly shown) [Compound 7a, 3-Acetoxyiminoolean-12-en-28-oic acid morpholide] showed an IC50 of 116 µM. Also, the “times less active than mother OA (1)” value in [9] (over the tested cell lines) is “about 8 fold”. Moreover, the pIC50 in test [9] (setting [11]) is at most 4.10. Further, in [5], the IC50 turned out to be 81.5 µM and the “Selectivity Index KB” value stood at 1.42. Also, in [6], 84.9 µM corresponded to half-maximal inhibition (IC50) and the “Selectivity Index A-549” value turned out to be 1.37. In test [7], the concentration for half-maximal inhibition (IC50) worked out at 82.2 µM and the “Selectivity Index HeLa” value turned out to be 1.41. Also, in [8], the 50% inhibitory concentration (IC50) worked out at 81 µM and the “Selectivity Index MCF-7” value was 1.43.
Compound `CC1(C)CC[C@]2(C(=O)N3CCOCC3)CC[C@]3(C)C(=CCC4[C@@]5(C)CC/C(=N\OC(=O)CCl)C(C)(C)C5CC[C@]43C)C2C1` (stereo partly shown) [Compound 7b, 3-Chloroacetoxyiminoolean12-en-28-oic acid morpholide] had a 50% inhibitory concentration (IC50) in test [4] of 39.1 µM. The negative-log IC50 (pIC50) in test [9] (setting [11]) was 4.40 to 4.82. In [5], the IC50 worked out at 19.8 µM and the “Selectivity Index KB” value is reported as 1.97. In addition, in test [6], the midpoint of inhibition, the IC50, lay at 19.3 µM and the “Selectivity Index A-549” value is 2.02. Further, in test [7], the half-inhibitory concentration (IC50) was 19.2 µM and the “Selectivity Index HeLa” value came out at 2.03. For the same compound, in [8], the IC50 is 15.6 µM and the “Selectivity Index MCF-7” value is listed as 2.50.
As to `CCC(=O)O/N=C1\CC[C@@]2(C)C(CC[C@]3(C)C2CC=C2C4CC(C)(C)CC[C@]4(C(=O)N4CCOCC4)CC[C@]23C)C1(C)C` (stereo partly shown) [Compound 7c, 3-Propionoxyimino-olean-12-en-28-oic acid morpholide], the IC50 in test [4] worked out at 179 µM; in test [5], 150 µM; in [6], 148 µM; in test [7], 143 µM; in test [8], 153 µM. Also, in test [9] (setting [11]), the pIC50 is 3.74 to 3.85. The “Selectivity Index KB” value in [5] worked out at 1.20. Further, the “Selectivity Index A-549” value in [6] was 1.21. In [7], the “Selectivity Index HeLa” value is 1.27. In addition, in test [8], the “Selectivity Index MCF-7” value worked out at 1.17.
In test [4], `CC1(C)CC[C@]2(C(=O)N3CCOCC3)CC[C@]3(C)C(=CCC4[C@@]5(C)CC/C(=N\OC(=O)c6ccccc6)C(C)(C)C5CC[C@]43C)C2C1` (stereo partly shown) [Compound 7d, 3-Benzoxyiminoolean-12-en-28-oic acid morpholide] yielded a half-inhibitory concentration (IC50) of 66.2 µM. For the same compound, the negative logarithm of the IC50 (pIC50) in test [9] (setting [11]) was 4.18 to 4.40. Further, in test [5], the IC50 was 45.9 µM and the “Selectivity Index KB” value was determined as 1.44. In test [6], the midpoint of inhibition, the IC50, lay at 46.8 µM and the “Selectivity Index A-549” value came out at 1.41. Moreover, in [7], the 50% inhibitory concentration (IC50) worked out at 45.3 µM and the “Selectivity Index HeLa” value came to 1.46. Also, in test [8], the concentration for half-maximal inhibition (IC50) was 41.7 µM and the “Selectivity Index MCF-7” value turned out to be 1.58.
Take `CC1(C)CC[C@]2(C(=O)N3CCOCC3)CC[C@]3(C)C(=CCC4[C@@]5(C)CC/C(=N\OC(=O)c6cccc([N+](=O)[O-])c6)C(C)(C)C5CC[C@]43C)C2C1` (stereo partly shown) [Compound 7e, 3-(3′-Nitro)benzoxyiminoolean-12-en-28-oic acid morpholide]: the IC50 is 28 µM in test [4]; 13.9 µM in test [5]; 13.8 µM in [6]; 12.1 µM in test [7]; 10.2 µM in test [8]. Further, the “IC50 values for the tested cell lines (range or summary)” value in [9] (setting [11]) was “comparable to those of OA (1)”. Besides, the “Selectivity Index KB” value in test [5] stood at 2.02. Also, the “Selectivity Index A-549” value in test [6] is on record as 2.03. Also, in test [7], the “Selectivity Index HeLa” value is reported as 2.32. In addition, in [8], the “Selectivity Index MCF-7” value is recorded as 2.75.
Turning to `CC1(C)CC[C@]2(C(=O)N3CCOCC3)CC[C@]3(C)C(=CCC4[C@@]5(C)CC/C(=N\OC(=O)c6ccc([N+](=O)[O-])cc6)C(C)(C)C5CC[C@]43C)C2C1` (stereo partly shown) [Compound 7f, 3-(4′-Nitro)benzoxyiminoolean-12-en-28-oic acid morpholide], in test [4], the IC50 is 85.1 µM. In addition, the pIC50 in test [9] (setting [11]) is 4.18 to 4.40. For the same compound, in test [5], half-maximal inhibition (IC50) was put at 61.5 µM and the “Selectivity Index KB” value is on record as 1.38. Further, in test [6], the IC50 was 62.9 µM and the “Selectivity Index A-549” value is 1.35. Besides, in [7], the 50% inhibitory concentration (IC50) was 60 µM and the “Selectivity Index HeLa” value is 1.42. Further, in test [8], half-maximal inhibition (IC50) required 57.2 µM and the “Selectivity Index MCF-7” value was found to be 1.49.
Take `CC1(C)CC[C@]2(C(=O)N3CCOCC3)CC[C@]3(C)C(=CCC4[C@@]5(C)CC/C(=N\OC(=O)c6cc([N+](=O)[O-])cc([N+](=O)[O-])c6)C(C)(C)C5CC[C@]43C)C2C1` (stereo partly shown) [Compound 7g, 3-(3′,5′-Dinitro)benzoxyiminoolean-12-en-28-oic acid morpholide]: the half-maximal inhibitory concentration (IC50) in test [4] amounted to 9.16 µM; in [5], 6.01 µM; in [6], 6.52 µM; in test [7] it was 6.24 µM; in [8] it was 7.27 µM. In addition, in test [9] (setting [11]), the pIC50 is 5.05 to 5.38. In addition, in test [5], the “Selectivity Index KB” value was determined as 1.52. The “increase in induction of apoptosis” value is 2.3 fold in [10] (0.1 µg/mL), 2.6 fold in test [10] (1.0 µg/mL) and 3.8 fold in [10] (10 µg/mL). Besides, in test [6], the “Selectivity Index A-549” value is 1.40. Further, the “Selectivity Index HeLa” value in [7] was 1.47. Also, in test [8], the “Selectivity Index MCF-7” value turned out to be 1.26.

The values above are taken from paper PMC10819243 (Pharmaceutics, 2024).
